Data from ChEMBL document CHEMBL1121735, “Synthesis and adrenoceptor affinity of some highly polar beta-substituted catecholamines” (J Med Chem, 1981).

Legend:
[1] = target: Adrenergic receptor alpha; experiment: Binding affinity against Alpha adrenergic receptor using [3H]dihydroergocryptine radioligand in rat brain homogenate; type: tissue-based
Adrenergic receptor beta = Adrenergic receptor beta (Rattus norvegicus, UniProt P18090+P10608+P26255); experiment: Binding affinity against Beta adrenergic receptor using [3H]dihydroalprenolol radioligand in rat brain homogenate; type: tissue-based

For CNCC(c1ccc(O)c(O)c1)S(=O)(=O)O (racemic), the IC50 [1] was 0.00001 M l-1 and the IC50 (Adrenergic receptor beta) was 0.00011 M l-1.

Work on NCC(c1ccc(O)c(O)c1)S(=O)(=O)O (racemic) yielded an IC50 [1] of 3.6e-6 M l-1 and an IC50 (Adrenergic receptor beta) of 0.00013 M l-1.

CC(C)NCC(c1ccc(O)c(O)c1)S(=O)(=O)O (racemic) gave an IC50 [1] of 0.000033 M l-1 and an IC50 (Adrenergic receptor beta) of 9.1e-6 M l-1.
